Our source for the Stability, solubility and IC50 values is US11254667B2 (priority 2016, dated 2022).

The structures appear in SMILES notation. Values after ≈ are worked out from the molar mass of the structure shown. Like-named read-outs stand apart in the source and are kept apart here.

One series in a line: physchem. To be noted: pH 7.4, aqueous buffer, kinetic from dmso stock.
For a further series, the system named is MA9-NRas cells. In words: NRAS IC50 (MA9-NRas cells). It counts as cell-based.
Setting [1] is: Homo sapiens, read-out: NRAS IC50.
Where [2] appears, read: Homo sapiens; read-out: NRAS IC50.

Molecule `Cc1ccc(NC2CNC2)nc1-c1cnc2ccc(Cl)cn12` [Compound I-49] returned a Stability (rat) of 26.2 min. The molecule further returned a solubility in the series “physchem” of over 46 µg/mL.
Regarding `COc1cc2ncc(-c3cccc(NC4CCNC4)n3)n2cc1-c1cc[nH]c1` (stereo not shown) [Compound I-27, 6-(7-methoxy-6-(1H-pyrrol-3-yl)imidazo[1,2-a]pyridin-3-yl)-N-(pyrrolidin-3-yl)pyridin-2-amine], where the note is “rat”, the Stability is reported as over 30.0 min. For the same molecule, the IC50 with MA9-NRas cells (setting [1]) is 4.43 µM. This molecule registered a solubility in “physchem” of 34.3 µg/mL (≈ 91.6 µM).
The corresponding values for `Clc1cn2c(-c3cccc(NC4CCNC4)n3)cnc2cc1OCCN1CCOCC1` (stereo not shown) [Compound I-40] are over 30.0 min, 0.626 µM and over 65 µg/mL.
In the case of `COc1cc2ncc(-c3cccc(NC4CCNCC4)n3)n2cc1-c1cn[nH]c1` [Compound I-30], where the note is “rat”, the Stability is listed as 24.7 min. For the same molecule, in “physchem”, the solubility was determined as 12.3 µg/mL (≈ 31.6 µM).
For `c1cc(NC2CCNC2)nc(-c2cnc3ccc(-c4cn[nH]c4)cn23)c1` (stereo not shown) [Compound I-54, 6-(6-(1H-pyrazol-4-yl)imidazo[1,2-a]pyridin-3-yl)-N-(pyrrolidin-3-yl)pyridin-2-amine], the Stability was 7.6 min. This molecule gave a solubility in the series “physchem” of over 51 µg/mL.
With `c1cc(NC2CCNC2)nc(-c2cnc3cc(OCCN4CCOCC4)c(-c4cn[nH]c4)cn23)c1` (stereo not shown) [Compound I-41, 6-(7-(2-morpholinoethoxy)-6-(1H-pyrazol-4-yl)imidazo[1,2-a]pyridin-3-yl)-N-(pyrrolidin-3-yl)pyridin-2-amine], for the setting “rat”, the Stability is given as over 30.0 min. The IC50 in the series with MA9-NRas cells (setting [1]) turned out to be 17.6 µM. In the series “physchem”, this molecule yielded a solubility of over 70 µg/mL.
`COc1cc2ncc(-c3cccc(NC4CCNC4)n3)n2cc1-c1c(C)noc1C` (stereo not shown) [Compound I-28, 6-(6-(3,5-dimethylisoxazol-4-yl)-7-methoxyimidazo[1,2-a]pyridin-3-yl)-N-(pyrrolidin-3-yl)pyridin-2-amine] returned a Stability (rat) of 15.7 min. For the same molecule, the IC50 in the series on MA9-NRas cells (setting [2]) was determined as 14.8 µM. In “physchem”, this molecule came in with a solubility of over 60 µg/mL.
For the molecule `COc1cc2ncc(-c3cccc(NC4CCNC4)n3)n2cc1C#N` (stereo not shown) [Compound I-39], for the setting “rat”, the Stability turned out to be 8.8 min. Moreover, in the series with MA9-NRas cells (setting [1]), the IC50 turned out to be 5.58 µM. Besides, the solubility in “physchem” came out at 10.6 µg/mL (≈ 31.7 µM).
Consider `N#CCC(=O)N1CC(Nc2cccc(-c3cnc4ccc(Cl)cn34)n2)C1` [Compound I-59], for which the Stability (rat) is listed as over 30.0 min. This molecule came in with a solubility in the series “physchem” of 18.3 µg/mL (≈ 49.9 µM).
`CN(c1cccc(-c2cnc3ccc(Cl)cn23)n1)C1CCNCC1` [Compound I-51] yielded a Stability of 9.0 min. The solubility in “physchem” is over 50 µg/mL.
Take `Clc1cc2ncc(-c3cccc(NC4CNC4)n3)n2cc1Cl` [Compound I-62]: the Stability (rat) is given as over 30.0 min. This molecule registered a solubility in the series “physchem” of 41.5 µg/mL (≈ 124 µM).
As for `COc1cc2ncc(-c3cccc(N(C)C4CCNC4)n3)n2cc1-c1cn[nH]c1` (stereo not shown) [Compound I-31, 6-(7-methoxy-6-(1H-pyrazol-4-yl)imidazo[1,2-a]pyridin-3-yl)-N-methyl-N-(pyrrolidin-3-yl)pyridin-2-amine], for the setting “rat”, the Stability is 11.5 min. In addition, the IC50 in the series with MA9-NRas cells (setting [2]) was 16.6 µM. In “physchem”, this molecule returned a solubility of 14.1 µg/mL (≈ 36.2 µM).
Regarding `COc1cc2ncc(-c3cccc(NC4CCNC4)n3)n2cc1-c1ccncc1` (stereo not shown) [Compound I-23, 6-(7-methoxy-6-(pyridin-4-yl)imidazo[1,2-a]pyridin-3-yl)-N-(pyrrolidin-3-yl)pyridin-2-amine], the Stability (rat) is reported as over 30.0 min. Also, the IC50 in the series on MA9-NRas cells (setting [1]) turned out to be 1.83 µM. For the same molecule, the concentration in solution in “physchem” (solubility) came to 11.6 µg/mL (≈ 30 µM).
Under “rat”, `c1cc(NC2CNC2)nc(-c2cnc3ccccn23)c1` [Compound I-12, N-(azetidin-3-yl)-6-(imidazo[1,2-a]pyridin-3-yl)pyridin-2-amine] registered a Stability of over 30.0 min. For the same molecule, the solubility in the series “physchem” is over 39 µg/mL.
The corresponding values for `COc1ccn2c(-c3cccc(NC4CNC4)n3)cnc2c1` [Compound I-50, N-(azetidin-3-yl)-6-(7-methoxyimidazo[1,2-a]pyridin-3-yl)pyridin-2-amine] are over 30.0 min and over 44 µg/mL.
On to `Cn1cc(-c2ccc3ncc(-c4cccc(NC5CNC5)n4)n3c2)cn1` [Compound I-46], for which the Stability (rat) is on record as over 30.0 min. The IC50 in the series with MA9-NRas cells (setting [1]) was 16.6 µM. Besides, the solubility in the series “physchem” is 43.1 µg/mL (≈ 125 µM).
Where the note is “rat”, `COc1cc2ncc(-c3cccc(OC4CCNC4)n3)n2cc1-c1cn[nH]c1` (stereo not shown) [Compound I-32, 7-methoxy-6-(1H-pyrazol-4-yl)-3-(6-(pyrrolidin-3-yloxy)pyridin-2-yl)imidazo[1,2-a]pyri-dine] gave a Stability of 7.7 min. Further, the IC50 with MA9-NRas cells (setting [1]) came out at 3.72 µM. The same molecule gave a solubility in “physchem” of 8.2 µg/mL (≈ 21.8 µM).
`CCN1CCN(c2ccc3ncc(-c4cccc(NC5CNC5)n4)n3c2)CC1` [Compound I-64] gave a solubility in the series “physchem” of over 56 µg/mL.
`COc1cc2ncc(-c3cccc(NC4CCNC4)n3)n2cc1-c1c(C)n[nH]c1C` (stereo not shown) [Compound I-25, 6-(6-(3,5-dimethyl-1H-pyrazol-4-yl)-7-methoxyimidazo[1,2-a]pyridin-3-yl)-N-(pyrrolidin-3-yl)pyridin-2-amine] displayed a Stability (rat) of over 30.0 min. Also, the IC50 in the series on MA9-NRas cells (setting [2]) came out at 15.7 µM. In “physchem”, this molecule yielded a solubility of over 60 µg/mL.
For the setting “rat”, `Clc1ccc2ncc(-c3cc(Br)cc(NC4CNC4)n3)n2c1` [Compound I-53] gave a Stability of over 30.0 min. In addition, the concentration in solution in the series “physchem” (solubility) came to 19.5 µg/mL (≈ 51.5 µM).
In the case of `Fc1cc(F)c(-c2cnc3ccc(Cl)cn23)nc1NC1CNC1` [Compound I-47], the Stability (rat) is reported as over 30.0 min. The IC50 with MA9-NRas cells (setting [1]) worked out at 1.88 µM. The same molecule yielded a solubility in the series “physchem” of over 50 µg/mL.
Regarding `COc1cc2ncc(-c3cccc(NC4CCNC4)n3)n2cc1Cl` (stereo not shown) [Compound I-21, 6-(6-chloro-7-methoxyimidazo[1,2-a]pyridin-3-yl)-N-(pyrrolidin-3-yl)pyridin-2-amine], the Stability (rat) was found to be 27 min. In the series “physchem”, this molecule displayed a solubility of 7.7 µg/mL (≈ 22.4 µM).
As to `c1cc(NC2CNC2)nc(-c2cnc3ccc(-c4cn[nH]c4)cn23)c1` [Compound I-45], the IC50 in the series with MA9-NRas cells (setting [1]) was 4.29 µM. In “physchem”, this molecule came in with a solubility of over 49 µg/mL.
Under “rat”, `C#Cc1cn2c(-c3cccc(NC4CCNC4)n3)cnc2cc1OC` (stereo not shown) [Compound I-68, 6-(6-ethynyl-7-methoxyimidazo[1,2-a]pyridin-3-yl)-N-(pyrrolidin-3-yl)pyridin-2-amine] registered a Stability of 11.6 min. The molecule also gave a solubility in “physchem” of over 49 µg/mL.
For the setting “rat”, `COc1cc2ncc(-c3cccc(NC4CCNC4)n3)n2cc1OC` (stereo not shown) [Compound I-36] yielded a Stability of over 30.0 min. In addition, in the series with MA9-NRas cells (setting [1]), the IC50 amounted to 4.43 µM. For the same molecule, the solubility in “physchem” is over 50 µg/mL.
The molecule `COc1cc(Cl)cn2c(-c3cccc(NC4CNC4)n3)cnc12` [Compound I-42, N-(azetidin-3-yl)-6-(6-chloro-8-methoxyimidazo[1,2-a]pyridin-3-yl)pyridin-2-amine] had a Stability of over 30 min. Moreover, the IC50 with MA9-NRas cells (setting [1]) amounted to 20.9 µM. In addition, the solubility in “physchem” was over 49 µg/mL.
Under “rat”, `COc1cc2ncc(-c3cccc(NC4CCNC4)n3)n2cc1-c1nnn[nH]1` (stereo not shown) [Compound I-38] returned a Stability of over 30.0 min. Further, in the series on MA9-NRas cells (setting [1]), the IC50 came out at 0.002 µM. The molecule further displayed a solubility in the series “physchem” of over 56 µg/mL.
`Cc1cc(NC2CNC2)nc(-c2cnc3ccc(Cl)cn23)c1` [Compound I-55, N-(azetidin-3-yl)-6-(6-chloroimidazo[1,2-a]pyridin-3-yl)-4-methylpyridin-2-amine]: the solubility in the series “physchem” is over 46 µg/mL.
The molecule `Cc1ccn2c(-c3cccc(NC4CNC4)n3)cnc2c1` [Compound I-61, N-(azetidin-3-yl)-6-(7-methylimidazo[1,2-a]pyridin-3-yl)pyridin-2-amine] had a Stability (rat) of over 30.0 min. The solubility in the series “physchem” was over 41 µg/mL.
`COc1cc(-c2cn[nH]c2)cn2c(-c3cccc(NC4CCNC4)n3)cnc12` (stereo not shown) [Compound I-37] displayed a Stability (rat) of 2.3 min. Further, the IC50 with MA9-NRas cells (setting [1]) is 16.6 µM. Also, the solubility in “physchem” is over 55 µg/mL.
For the molecule `COc1cc(NC2CNC2)nc(-c2cnc3ccc(Cl)cn23)c1` [Compound I-67, N-(azetidin-3-yl)-6-(6-chloroimidazo[1,2-a]pyridin-3-yl)-4-methoxypyridin-2-amine], the Stability (rat) is recorded as over 30.0 min. The solubility in the series “physchem” was over 49 µg/mL.
With `Brc1ccc2ncc(-c3cccc(NC4CNC4)n3)n2c1` [Compound I-52], the Stability (rat) was found to be 19.8 min. Besides, in “physchem”, the solubility amounted to 41.8 µg/mL (≈ 121 µM).
`Clc1ccc2ncc(-c3cccc(NC4CCNC4)n3)n2c1` (stereo not shown) [Compound I-16, 6-(6-chloroimidazo[1,2-a]pyridin-3-yl)-N-(pyrrolidin-3-yl)pyridin-2-amine] yielded a Stability (rat) of 25.6 min. Besides, the IC50 with MA9-NRas cells (setting [1]) was 1.76 µM. In “physchem”, this molecule came in with a solubility of over 46 µg/mL.
In turn, `c1cc(N[C@H]2CCNC2)nc(-c2cnc3ccc(-c4cn[nH]c4)cn23)c1` [Compound I-44] showed a Stability of 6.7 min. In “physchem”, this molecule showed a solubility of 42.6 µg/mL (≈ 123 µM).
For `O=C(c1ccccc1)N1CC(Nc2cccc(-c3cnc4ccc(Cl)cn34)n2)C1` [Compound I-58], the Stability (rat) amounted to 8.0 min. For the same molecule, in the series “physchem”, the solubility is under 1 µg/mL.
Molecule `N#Cc1ccc2ncc(-c3cccc(NC4CNC4)n3)n2c1` [Compound I-60, 3-(6-(azetidin-3-ylamino)pyridin-2-yl)imidazo[1,2-a]pyridine-6-carbonitrile] gave a Stability (rat) of 16.4 min. The molecule further had a solubility in “physchem” of over 43 µg/mL.
In the case of `CC(=O)N1CC(Nc2cccc(-c3cnc4ccc(Cl)cn34)n2)C1` [Compound I-57], the Stability (rat) is listed as over 30.0 min. In the series “physchem”, this molecule came in with a solubility of over 50 µg/mL.
The molecule `Clc1ccn2c(-c3cccc(NC4CNC4)n3)cnc2c1` [Compound I-63, N-(azetidin-3-yl)-6-(7-chloroimidazo[1,2-a]pyridin-3-yl)pyridin-2-amine] came in with a solubility in the series “physchem” of over 44 µg/mL.
Where the note is “rat”, `COc1cc2ncc(-c3nc(NC4CCNC4)c(F)cc3F)n2cc1-c1cn[nH]c1` (stereo not shown) [Compound I-33, 3,5-difluoro-6-(7-methoxy-6-(1H-pyrazol-4-yl)imidazo[1,2-a]pyridin-3-yl)-N-(pyrrolidin-3-yl)pyridin-2-amine] displayed a Stability of 9.3 min. For the same molecule, in the series on MA9-NRas cells (setting [1]), the IC50 was 29.8 µM. In “physchem”, this molecule registered a solubility of 3.9 µg/mL (≈ 9.48 µM).
`Cc1ccc(-c2cnc3ccc(Cl)cn23)nc1NC1CNC1` [Compound I-48] yielded a Stability (rat) of 11.8 min. The same molecule gave a solubility in the series “physchem” of over 46 µg/mL.

What is called solubility is how much of the substance goes into solution per volume. A lower solubility goes with a poorly soluble substance. By IC50 is commonly meant the concentration that gives 50% inhibition.
